Results from patent publication US20150216177A1, “METHOD FOR SELECTIVELY INHIBITING SULFATE-REDUCING BACTERIUM, GYPSUM COMPOSITION CAPABLE OF INHIBITING PROLIFERATION OF SULFATE-REDUCING BACTERIUM BY SAID METHOD, GYPSUM-TYPE SOLIDIFYING MATERIAL, AND GYPSUM-TYPE BUILDING MATERIAL” (priority 2012, published 2015).

Assays:
Type in all cases: cell-based
[1] = test system: Sulfate-reducing bacterium: Desulfovibrio vulgaris DSM 644T
[2] = test system: Colon bacillus: Escherichia coli NBRC 102203T; assay: Proliferation-inhibiting (bacteriostatic) effect in Al-added culture medium, protein amount by BCA method; conditions: 2 mM or 20 mM Al solution in culture medium, anaerobic shaking culture 37° C.; FIG. 2 / FIG. 5
[3] = test system: Butyric acid bacterium: Clostridium butyricum NBRC 13949T; conditions: 2 mM or 20 mM Al solution in culture medium, anaerobic shaking culture 37° C.; FIG. 3 / FIG. 6

| Compound | proliferation of the sulfate-reducing bacterium (increase in protein amount) [1] | proliferation of the colon bacillus (increase in protein amount) [2] | proliferation of the butyric acid bacterium (increase in protein amount) [3] | selective bacteriostatic effect (sulfate-reducing bacterium versus colon bacillus and butyric acid bacterium) [1] |
| --- | --- | --- | --- | --- |
| [Cl][Al]([Cl])[Cl] [Comparative Example 1, AlCl3, reference compound] | inhibited | inhibited | inhibited | – |
| EDTA/Al chelate [Example 3] | – | – | – | same selective bacteriostatic effects as in Example 1 were also recognized |
| citric acid/Al chelate [Example 1] | inhibited | not inhibited | not inhibited | selective bacteriostatic effect was recognized |
| oxalic acid/Al chelate [Example 2] | – | – | – | same selective bacteriostatic effects as in Example 1 were also recognized |
